Reference: patent publication US8426340B2, “Plant growth enhancement with combinations of PESA and plant growth regulators” (Valent BioSciences Corporation, priority 2009, dated 2013)
Counter-ions that a name gives are not always drawn.

Experiments:
Type in all cases: in vivo
rice cv. Cheniere = assay: Pouch assay, root length of rice seedlings; details: for effect on main root length of rice cv. Cheniere / effect on root length of rice seedlings: pouch solution; for effect on main root length of rice cv. Cheniere: combination: 3, 10, or 30 mg/liter PESA with 1 or 10 mg/liter trinexapac-ethyl
Experimental: (§1) Seeds were placed in germination pouches consisting of germination paper hydrated with sterile water that was an insert in a gas-permeable 16×14 cm plastic pouch (CYG Pouch; Mega International, St. Paul, Minn.). In these examples, in pouch solution evaluation, PESA sodium salt or other active ingredients were added to the sterile water in the pouch. The pouches were arranged in a completely randomized block design in growth racks and placed in 19-liter polycarbonate food storage containers (Rubbermaid Commercial Products, Winchester, Va.). The sealed containers were held in an upright growth cabinet maintained at 25° C. with a 12 hour light: 12 hour dark photoperiod. When Abscisic acid was assayed in pouch studies, the pouches were first filled with sterile water to promote germination. The sterile water solutions were replaced after germination (4 days) and replaced with solutions containing ABA. After 6 days, the containers were removed from the growth cabinet, and the lengths of the roots and shoot were measured.
In pouch solution evaluation, treatment with the gibberellin biosynthesis inhibitor trinexapac-ethyl on […].

cotton [1] = assay: Pouch assay, root length of cotton seedlings (ABA)
Experimental: as §1

lettuce [2] = assay: Lettuce seed treatment, germination under thermodormancy conditions; details: 33° C. and continuous light
Experimental: (§2) Seed was sieved with a screen of mesh size appropriate to remove broken seeds and small trash. Cracked or otherwise damaged seeds were removed. The seed was well mixed, and 50 g samples were weighed into small plastic trays. Seed treatment slurries were made by adding measured amounts of PESA or its salts and other AIs to sufficient water to bring them up to a standard volume, typically 2 ml. A fungicide (Maxim XL; Syngenta Agricultural Products, Greensboro, N.C.), a polymeric binder (CF-Clear; Becker-Underwood, Ames, Iowa), and a colorant (Color Coat Red; Becker-Underwood, Ames, Iowa) were also included in the slurry at label rates. A small aliquot of this slurry was applied to the seed using a Hege 11 coater (Wintersteiger, Salt Lake City, Utah) with a six-inch bowl at a slurry rate of 30 ounces per 100 lbs of seed. The slurry was deposited drop-wise on the spinning disk atomizer using a syringe.
(§3) After treatment, each seed sample was placed in plastic trays and dried at a room temperature for 20 to 60 minutes. The samples were then placed in small plastic bags. […]
To test the effect of chemical application on thermodormancy, lettuce seed was treated with PESA salt (50 g/cwt), 6BA (1 g/cwt), or a combination of PESA salt and 6BA. Lettuce seed was then grown under conditions that promote thermodormancy (33° C. and continuous light) and final seedling germination was determined (Table 1).

lettuce [3] = assay: Lettuce seed treatment, root growth; details: 25° C. in darkness, 3 days
Experimental: as §2, §3
To test the effect of chemical application on root growth, lettuce seed was treated with PESA salt (50 g/cwt), 6BA (1 g/cwt), or a combination of PESA salt and 6BA. Treated lettuce seed was grown at 25° C. in darkness, and root lengths were determined after 3 days.

cotton [4] = assay: Pouch assay, root length of cotton seedlings (6BA); details: for root length (cm) of cotton: 6BA 0 mg/liter
Experimental: as §1

[5] = PESA salt 50 g/cwt, 6BA 1 g/cwt, alone or in combination
[6] = seed treatment 50 g/cwt PESA salt, 0 g/cwt 6BA
[7] = ACC alone 1, 10, or 100 mg/liter, combination: 3, 10, or 30 mg/liter PESA with 1, 10, or 100 mg/liter ACC, except 10 mg/liter PESA with 1 mg/liter ACC

For `CCOC(=O)C1CC(=O)C(=C(O)C2CC2)C(=O)C1` (centres unmarked) [trinexapac-ethyl, reference compound], the “root length (cm) of rice cv. Cheniere” value (rice cv. Cheniere; Table 3, PESA salt 0 mg/liter, trinexapac-ethyl 1 mg/liter) was 10.9 cm, the “root length (cm) of rice cv. Cheniere” value (rice cv. Cheniere; Table 3, PESA salt 0 mg/liter, trinexapac-ethyl 10 mg/liter) was 9.9 cm and the “root length (cm) of rice cv. Cheniere” value (rice cv. Cheniere; Table 3, PESA salt 0 mg/liter, trinexapac-ethyl 100 mg/liter) was 5.0 cm. For the same molecule, the “effect on main root length of rice cv. Cheniere” value (rice cv. Cheniere) was “negative effect on main root length”.
With `CC1=CC(=O)CC(C)(C)[C@@]1(O)/C=C/C(C)=C\C(=O)O` [ABA, abscisic acid] the “root length (cm) of cotton” value (cotton [1]; PESA salt 0 mg/liter, ABA 1 mg/liter) was 10.4 cm, the “root length (cm) of cotton” value (cotton [1]; PESA salt 0 mg/liter, ABA 10 mg/liter) was 10.0 cm and the “effect on root growth of cotton seedlings” value (cotton [1]; pouch solution, combination: PESA 3 or 10 mg/liter with ABA) was “inhibited root growth”.
For `O=C(O)CCC(=O)NCCc1ccccc1` [PESA salt, N-(2-phenylethyl)succinamic acid], the “root length (cm) of cotton” value (cotton [1]; PESA salt 3 mg/liter, ABA 0 mg/liter) was 11.9 cm, the “root length (cm) of cotton” value (cotton [1]; PESA salt 10 mg/liter, ABA 0 mg/liter) was 11.1 cm and the “effect on lettuce germination” value (lettuce [2]; [5]) was “no effect”. For the same molecule, the “Germination (%)” value (lettuce [2]; [6]) was 14.9%, the “effect on lettuce root growth” value (lettuce [3]; [5]) was “no effect on lettuce root growth” and the “Root length (cm)” value (lettuce [3]; [6]) was 3.8 cm. For the same molecule, the “root length (cm) of rice cv. Cheniere” value (rice cv. Cheniere; Table 3, PESA salt 3 mg/liter, trinexapac-ethyl 0 mg/liter) was 12.1 cm, the “root length (cm) of rice cv. Cheniere” value (rice cv. Cheniere; Table 3, PESA salt 10 mg/liter, trinexapac-ethyl 0 mg/liter) was 12.5 cm and the “root length (cm) of rice cv. Cheniere” value (rice cv. Cheniere; Table 3, PESA salt 30 mg/liter, trinexapac-ethyl 0 mg/liter) was 13.1 cm. The “root length (cm) of rice cv. Cheniere” value (rice cv. Cheniere; Table 4, PESA salt 3 mg/liter, ACC 0 mg/liter) was 9.7 cm, the “root length (cm) of rice cv. Cheniere” value (rice cv. Cheniere; Table 4, PESA salt 10 mg/liter, ACC 0 mg/liter) was 9.8 cm and the “root length (cm) of rice cv. Cheniere” value (rice cv. Cheniere; Table 4, PESA salt 30 mg/liter, ACC 0 mg/liter) was 9.4 cm. The “root length (cm) of rice cv. Cheniere” value (rice cv. Cheniere; Table 5, PESA salt 3 mg/liter, AVG 0 mg/liter) was 11.4 cm, the “root length (cm) of rice cv. Cheniere” value (rice cv. Cheniere; Table 5, PESA salt 30 mg/liter, AVG 0 mg/liter) was 12.3 cm and the “effect on root length of rice seedlings” value (rice cv. Cheniere; [7]) was “increased root length”. For the same molecule, the “effect on root length of rice seedlings” value (rice cv. Cheniere; PESA salt alone (AVG experiment)) was “increased root length”, the “effect on main root length of rice cv. Cheniere” value (rice cv. Cheniere) was “increased root length in a dose-dependent manner” and the “root length (cm) of cotton” value (cotton [4]; PESA salt 3 mg/liter) was 9.8 cm. For the same molecule, the “root length (cm) of cotton” value (cotton [4]; PESA salt 10 mg/liter) was 11.9 cm, the “root length (cm) of cotton” value (cotton [4]; PESA salt 30 mg/liter) was 13.0 cm and the “effect on main root length of cotton seedlings” value (cotton [4]; pouch solution, combination: 10 or 30 mg/liter PESA with 1 or 10 mg/liter 6BA) was “increased root length in a dose-dependent manner”.
For `NC1(C(=O)O)CC1` [ACC, 1-aminocyclopropane carboxylic acid, reference compound], the “root length (cm) of rice cv. Cheniere” value (rice cv. Cheniere; Table 4, PESA salt 0 mg/liter, ACC 1 mg/liter) was 8.8 cm, the “root length (cm) of rice cv. Cheniere” value (rice cv. Cheniere; Table 4, PESA salt 0 mg/liter, ACC 10 mg/liter) was 7.8 cm and the “root length (cm) of rice cv. Cheniere” value (rice cv. Cheniere; Table 4, PESA salt 0 mg/liter, ACC 100 mg/liter) was 4.3 cm. The “effect on root length of rice seedlings” value (rice cv. Cheniere; [7]) was “reduced root length”.
